Laboratory results published in patent US20250114460A1, “NOVEL PLK1 DEGRADATION INDUCING COMPOUND” (UPPTHERA, INC., priority 2021, published 2025).

What follows are compounds tested against T1, PLK1 (Homo sapiens, UniProt P53350) (assay: Luciferase assay for PLK1 in HeLa LgBit (Plk1-HiBit KI) cell line). Settings: 300 nM compound, luminescence after 9 hours.
T1 construct: endogenous in cells; host or cells: HeLa LgBit (Plk1-HiBit KI): HeLa stably expressing LgBit, with a CRISPR/Cas9 knock-in of HiBit at the endogenous PLK1 locus
T1 sequence (P53350 whole entry): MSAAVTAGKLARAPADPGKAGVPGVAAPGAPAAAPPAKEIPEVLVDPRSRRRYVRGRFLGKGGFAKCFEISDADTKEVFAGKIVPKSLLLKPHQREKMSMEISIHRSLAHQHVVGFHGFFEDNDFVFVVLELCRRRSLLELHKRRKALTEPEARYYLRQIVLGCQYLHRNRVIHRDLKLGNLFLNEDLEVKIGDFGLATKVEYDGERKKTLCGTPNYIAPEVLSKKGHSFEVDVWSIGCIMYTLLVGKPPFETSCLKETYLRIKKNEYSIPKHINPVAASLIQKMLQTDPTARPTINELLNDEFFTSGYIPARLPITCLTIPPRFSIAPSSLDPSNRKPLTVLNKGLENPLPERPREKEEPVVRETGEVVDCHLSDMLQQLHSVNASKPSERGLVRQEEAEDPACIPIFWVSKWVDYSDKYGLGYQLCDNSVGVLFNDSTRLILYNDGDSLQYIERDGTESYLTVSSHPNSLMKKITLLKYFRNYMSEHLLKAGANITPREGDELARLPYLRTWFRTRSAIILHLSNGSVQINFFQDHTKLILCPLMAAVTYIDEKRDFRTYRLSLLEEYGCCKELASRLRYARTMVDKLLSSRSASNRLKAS
Assay type: cell-based
Procedure: 2. Luciferase Assay for PLK1
(1) Preparation and Culture of HeLa LgBit (Plk1-HiBit KI) Cell Line
A HeLa cell line in which the LgBit vector was transfected and expressed stably was prepared. Then, after constructing gRNA and donor to express the HiBit amino acid sequence behind the C-terminal of the Plk1 gene, which was inherent in the cell, it was inserted into the cell together with a vector capable of expressing CRISPR/Cas9. Only the cells in which the insertion was completed and knock-in had progressed were selected, sub-cultured and used.
(2) Treatment of Compounds of the Present Invention and Method of Luciferase Assay
In the case of HeLa LgBit (Plk1-HiBit KI), the compounds were treated after being released after thymidine block, and the process was as follows. Thymidine (Sigma-Aldrich Cat. No. T9250-5G) was completely dissolved in DW and used in the experiment. For thymidine block, the products were treated with 2 mM of thymidine and then incubated for 24 hours. For release and chemical treatment, the medium was suctioned and washed with 1×PBS. TrypLE™ was added and incubated in 37° C. CO2 incubator for 5 min. Cells neutralized by adding complete media were counted through a counter. For each well of a 96-well culture plate (SPL), 3.3×10^4 cells and a total medium volume of 150 μL were seeded and incubated in a CO2 incubator.
Each cell line was incubated in a CO2 incubator for 18 hours, and Endurazine was added to each well to make up 4% of the total volume. After adding the compound of the present invention in a 96-well white plate (SPL) to a concentration of 300 nM, the wavelength of the plate reader (BMG Labtech, CLARIOstar Plus) was set to […], and then the luminescence was tracked in real time.
In Table 2, Activity represents the ratio of the luminescense value of each Exemplary Compound treatment group to DMSO treatment group (+++: <0.3, ++<0.6, +<0.7).
With C=CC[C@H]1CN(C2CCCC2)c2nc(Nc3ccc(C(=O)NC4CCN(C(=O)CCN5CCN(c6cccc7c6C(=O)N(C6CCC(=O)NC6=O)C7=O)CC5)CC4)cc3OC)ncc2N(C)C1=O (single isomer, unassigned) [Compound 70, 4-((7-allyl-9-cyclopentyl-5-methyl-6-oxo-6,7,8,9-tetrahydro-5H-pyrimido[4,5-b][1, 4]diazepin-2-yl)amino)-N-(1-(3-(4-(2-(2,6-dioxopiperidin-3-yl)-1,3-dioxoisoindolin-4-yl)piperazin-1-yl)propanoyl)piperidin-4-yl)-3-methoxybenzamide] the “Activity: ratio of the luminescense value of each Exemplary Compound treatment group to DMSO treatment group” value (shortened to “Activity: ratio”) was “++ (++<0.6)”. COc1cc(N2CCC(CN3CCN(c4ccc5c(c4)C(=O)N(C4CCC(=O)NC4=O)C5=O)CC3)CC2)c(F)cc1Nc1ncc2c(n1)N(C1CCCC1)CC(F)(F)C(=O)N2C (stereo not shown) [Compound 111, 5-(4-((1-(4-((9-cyclopentyl-7,7-difluoro-5-methyl-6-oxo-6,7,8,9-tetrahydro-5H-pyrimido[4,5-b][1,4]diazepin-2-yl)amino)-2-fluoro-5-methoxyphenyl)piperidin-4-yl)methyl)piperazin-1-yl)-2-(2,6-dioxopiperidin-3-yl)isoindoline-1,3-dione] was tested, and the “Activity: ratio” value was “+ (+<0.7)”. COc1cc(C(=O)NC2CCN(C(=O)CCN3CCN(c4cccc5c4C(=O)N(C4CCC(=O)NC4=O)C5=O)CC3)CC2)ccc1Nc1ncc2c(n1)N(C1CC1)CC(F)(F)C(=O)N2C (stereo not shown) [Compound 67, 4-((9-cyclopropyl-7,7-difluoro-5-methyl-6-oxo-6,7,8,9-tetrahydro-5H-pyrimido[4,5-b][1,4]diazepin-2-yl)amino)-N-(1-(3-(4-(2-(2,6-dioxopiperidin-3-yl)-1,3-dioxoisoindolin-4-yl)piperazin-1-yl)propanoyl)piperidin-4-yl)-3-methoxybenzamide] was tested, and the “Activity: ratio” value was “++ (++<0.6)”. COc1cc(C(=O)NC2CCN(C(=O)CC3CN(c4cccc5c4C(=O)N(C4CCC(=O)NC4=O)C5=O)C3)CC2)c(F)cc1Nc1ncc2c(n1)N(C1CCCC1)CC(F)(F)C(=O)N2C (stereo not shown) [Compound 204, 4-((9-cyclopentyl-7,7-difluoro-5-methyl-6-oxo-6,7,8,9-tetrahydro-5H-pyrimido[4,5-b][1,4]diazepin-2-yl)amino)-N-(1-(2-(1-(2-(2,6-dioxopiperidin-3-yl)-1,3-dioxoisoindolin-4-yl)azetidin-3-yl)acetyl)piperidin-4-yl)-2-fluoro-5-methoxybenzamide] was tested, and the “Activity: ratio” value was “+ (+<0.7)”. For COc1cc(C(=O)NC2CCN(Cc3ccc(COc4ccc5c(c4)CN([C@H]4CCC(=O)NC4=O)C5=O)cc3)CC2)ccc1Nc1ncc2c(n1)N(C1CCCC1)CC(F)(F)C(=O)N2C [Compound 22, (S)-4-((9-cyclopentyl-7,7-difluoro-5-methyl-6-oxo-6,7,8,9-tetrahydro-5H-pyrimido[4,5-b][1,4]diazepin-2-yl)amino)-N-(1-(4-(((2-(2,6-dioxopiperidin-3-yl)-1-oxoisoindolin-5-yl)oxy)methyl)benzyl)piperidin-4-yl)-3-methoxybenzamide], the “Activity: ratio” value was “+ (+<0.7)”. For COc1cc(C(=O)N2CCC(CCCCN3CCN(c4ccc5c(c4)C(=O)N(C4CCC(=O)NC4=O)C5=O)CC3)CC2)ccc1Nc1ncc2c(n1)N(C1CCCC1)CC(F)(F)C(=O)N2C (stereo not shown) [Compound 100, 5-(4-(4-(1-(4-((9-cyclopentyl-7,7-difluoro-5-methyl-6-oxo-6,7,8,9-tetrahydro-5H-pyrimido[4,5-b][1,4]diazepin-2-yl)amino)-3-methoxybenzoyl)piperidin-4-yl)butyl)piperazin-1-yl)-2-(2,6-dioxopiperidin-3-yl)isoindoline-1,3-dione], the “Activity: ratio” value was “++ (++<0.6)”. COc1cc(C(=O)NN2CCC(N3CC4(CCN(c5ccc6c(c5)C(=O)N(C5CCC(=O)NC5=O)C6=O)CC4)C3)CC2)ccc1Nc1ncc2c(n1)N(C(C)C)CC(F)(F)C(=O)N2C (stereo not shown) [Compound 214, 4-((7,7-difluoro-9-isopropyl-5-methyl-6-oxo-6,7,8,9-tetrahydro-5H-pyrimido[4,5-b][1,4]diazepin-2-yl)amino)-N-(4-(7-(2-(2,6-dioxopiperidin-3-yl)-1,3-dioxoisoindolin-5-yl)-2,7-diazaspiro[3.5]nonan-2-yl)piperidin-1-yl)-3-methoxybenzamide] was tested, and the “Activity: ratio” value was “+ (+<0.7)”. COc1cc(C(=O)NC2CCN(CCCC3CCCN(c4cccc5c4C(=O)N(C4CCC(=O)NC4=O)C5=O)C3)CC2)ccc1Nc1ncc2c(n1)N(C1CCCC1)CC(F)(F)C(=O)N2C (stereo not shown) [Compound 57, 4-((9-cyclopentyl-7,7-difluoro-5-methyl-6-oxo-6,7,8,9-tetrahydro-5H-pyrimido[4,5-b][1,4]diazepin-2-yl)amino)-N-(1-(3-(1-(2-(2,6-dioxopiperidin-3-yl)-1,3-dioxoisoindolin-4-yl)piperidin-3-yl)propyl)piperidin-4-yl)-3-methoxybenzamide] was tested, and the “Activity: ratio” value was “+ (+<0.7)”. For COc1cc(C(=O)N2CCN(CCCNc3cccc4c3C(=O)N(C3CCC(=O)NC3=O)C4=O)CC2)c(F)cc1Nc1ncc2c(n1)N(C1CCCC1)CC(F)(F)C(=O)N2C (stereo not shown) [Compound 183, 4-((3-(4-(4-((9-cyclopentyl-7,7-difluoro-5-methyl-6-oxo-6,7,8,9-tetrahydro-5H-pyrimido[4,5-b][1,4]diazepin-2-yl)amino)-2-fluoro-5-methoxybenzoyl)piperazin-1-yl)propyl)amino)-2-(2,6-dioxopiperidin-3-yl)isoindoline-1,3-dione], the “Activity: ratio” value was “+ (+<0.7)”. COc1cc(C(=O)N2CCC(CCCCN3CCN(c4cccc5c4C(=O)N(C4CCC(=O)NC4=O)C5=O)CC3)CC2)ccc1Nc1ncc2c(n1)N(C1CCCC1)CC(F)(F)C(=O)N2C (stereo not shown) [Compound 96, 4-(4-(4-(1-(4-((9-cyclopentyl-7,7-difluoro-5-methyl-6-oxo-6,7,8,9-tetrahydro-5H-pyrimido[4,5-b][1,4]diazepin-2-yl)amino)-3-methoxybenzoyl)piperidin-4-yl)butyl)piperazin-1-yl)-2-(2,6-dioxopiperidin-3-yl)isoindoline-1,3-dione] was tested, and the “Activity: ratio” value was “++ (++<0.6)”. CN1C(=O)C(F)(F)CN(C2CCCC2)c2nc(Nc3ccc(C(=O)NC4CCN(C(=O)CCN5CCN(c6cccc7c6C(=O)N(C6CCC(=O)NC6=O)C7=O)CC5)CC4)cc3C(F)(F)F)ncc21 (stereo not shown) [Compound 75, 4-((9-cyclopentyl-7,7-difluoro-5-methyl-6-oxo-6,7,8,9-tetrahydro-5H-pyrimido[4,5-b][1,4]diazepin-2-yl)amino)-N-(1-(3-(4-(2-(2,6-dioxopiperidin-3-yl)-1,3-dioxoisoindolin-4-yl)piperazin-1-yl)propanoyl)piperidin-4-yl)-3-(trifluoromethyl)benzamide] was tested, and the “Activity: ratio” value was “++ (++<0.6)”. COc1cc(C(=O)N2CCC(N3CCN(CCOCCNc4ccc5c(c4)C(=O)N(C4CCC(=O)NC4=O)C5=O)CC3)CC2)c(F)cc1Nc1ncc2c(n1)N(C1CCCC1)CC(F)(F)C(=O)N2C (stereo not shown) [Compound 191, 5-((2-(2-(4-(1-(4-((9-cyclopentyl-7,7-difluoro-5-methyl-6-oxo-6,7,8,9-tetrahydro-5H-pyrimido[4,5-b][1,4]diazepin-2-yl)amino)-2-fluoro-5-methoxybenzoyl)piperidin-4-yl)piperazin-1-yl)ethoxy)ethyl)amino)-2-(2,6-dioxopiperidin-3-yl)isoindoline-1,3-dione] was tested, and the “Activity: ratio” value was “++ (++<0.6)”. With COc1cc(C(=O)NC2CCN(CCOCCOCCOCCOCCOCCOCCNc3cccc4c3C(=O)N(C3CCC(=O)NC3=O)C4=O)CC2)c(F)cc1Nc1ncc2c(n1)N(C1CCCC1)CC(F)(F)C(=O)N2C (stereo not shown) [Compound 17, 4-((9-cyclopentyl-7,7-difluoro-5-methyl-6-oxo-6,7,8,9-tetrahydro-5H-pyrimido[4,5-b][1,4]diazepin-2-yl)amino)-N-(1-(20-((2-(2,6-dioxopiperidin-3-yl)-1,3-dioxoisoindolin-4-yl)amino)-3,6,9,12,15,18-hexaoxaicosyl)piperidin-4-yl)-2-fluoro-5-methoxybenzamide] the “Activity: ratio” value was “++ (++<0.6)”.
